The results in this text go back to ChEMBL document CHEMBL1140971, “Synthesis of new 4-pyrrol-1-yl benzoic acid hydrazide analogs and some derived oxadiazole, triazole and pyrrole ring systems: a novel class of potential antibacterial and antitubercular agents” (2008).

The structures appear in SMILES notation. Converted amounts (≈) assume the structure as drawn.

Holding throughout (format): functional
For experiment [1], the system named is Mycobacterium tuberculosis. Description: Antitubercular activity against Mycobacterium tuberculosis H37Rv after 21 days by broth dilution assay. The following applies: 504 h. (Dilution methods test growth across graded concentrations, often in twofold steps.)
A further experiment deals with Staphylococcus aureus. The experiment in a line: Antibacterial activity against Staphylococcus aureus ATCC 11632 after 18 hrs by broth microdilution method. The conditions noted are these: ATCC 11632, 18 h.
The subject of another experiment is Enterococcus faecalis. The experiment in a line: Antibacterial activity against Streptococcus faecalis ATCC 14506 after 18 hrs by broth microdilution method. The conditions noted are these: ATCC 14506, 18 h.
The test system of the next experiment is Bacillus subtilis. The experiment in a line: Antibacterial activity against Bacillus subtilis ATCC 60511 after 18 hrs by broth microdilution method. The conditions noted are these: ATCC 60511, 18 h.
In another experiment the test system is Klebsiella pneumoniae. Description: Antibacterial activity against Klebsiella pneumoniae ATCC 10031 after 18 hrs by broth microdilution method. The conditions noted are these: ATCC 10031, 18 h.
The test system of the next experiment is Escherichia coli. Description: Antibacterial activity against Escherichia coli ATCC 10536 after 18 hrs by broth microdilution method. The following applies: ATCC 10536, 18 h.
The next experiment relates to Pseudomonas aeruginosa. The experiment in a line: Antibacterial activity against Pseudomonas aeruginosa ATCC 10145 after 18 hrs by broth microdilution method. The following applies: ATCC 10145, 18 h.

The term MIC denotes the least concentration at which growth counts as inhibited. The low end stands for a more susceptible organism, the high end for a less susceptible organism. In the case of `O=C(N/N=C/c1c(Cl)cccc1Cl)c1ccc(-n2cccc2)cc1`, the MIC in experiment [1] was 31.2 µg/mL (≈ 87.2 µM); in the experiment with Staphylococcus aureus, 125 µg/mL (≈ 349 µM); with Enterococcus faecalis, 125 µg/mL (≈ 349 µM); against Bacillus subtilis it was 62.5 µg/mL (≈ 174 µM); against Klebsiella pneumoniae, 125 µg/mL (≈ 349 µM); against Escherichia coli, 62.5 µg/mL (≈ 174 µM). Besides, inhibition of growth in the experiment on Pseudomonas aeruginosa (MIC) required 62.5 µg/mL (≈ 174 µM).

For `O=C(O)c1cn(C2CC2)c2cc(N3CCNCC3)c(F)cc2c1=O` [CIPROFLOXACIN], the MIC in the experiment with Staphylococcus aureus is less than 5 µg/mL; in the experiment on Enterococcus faecalis it was less than 5 µg/mL; with Bacillus subtilis, not above 1 µg/mL; in the experiment with Klebsiella pneumoniae, not above 1 µg/mL; against Escherichia coli, not above 1 µg/mL; with Pseudomonas aeruginosa it was more than 5 µg/mL.

For `O=C(N/N=C/c1ccccc1)c1ccc(-n2cccc2)cc1`, the MIC in experiment [1] is 125 µg/mL (≈ 432 µM); against Staphylococcus aureus, 250 µg/mL (≈ 864 µM); against Enterococcus faecalis it was 250 µg/mL (≈ 864 µM); against Bacillus subtilis it was 125 µg/mL (≈ 432 µM); against Klebsiella pneumoniae, 125 µg/mL (≈ 432 µM); in the experiment on Escherichia coli it was 125 µg/mL (≈ 432 µM). In the experiment on Pseudomonas aeruginosa, this molecule yielded an MIC of 125 µg/mL (≈ 432 µM).

Turning to `CCn1cc(C(=O)O)c(=O)c2cc(F)c(N3CCNCC3)cc21` [NORFLOXACIN], the MIC is less than 5 µg/mL against Staphylococcus aureus; less than 5 µg/mL with Enterococcus faecalis; not above 1 µg/mL against Bacillus subtilis; not above 1 µg/mL against Klebsiella pneumoniae; not above 1 µg/mL against Escherichia coli; more than 5 µg/mL in the experiment on Pseudomonas aeruginosa.

For the molecule `O=C(NN=C(c1ccccc1)c1ccccc1)c1ccc(-n2cccc2)cc1`, the MIC in experiment [1] came to 62.5 µg/mL (≈ 171 µM); with Staphylococcus aureus it was 500 µg/mL (≈ 1370 µM); against Enterococcus faecalis it was 250 µg/mL (≈ 684 µM); with Bacillus subtilis, 62.5 µg/mL (≈ 171 µM); in the experiment on Klebsiella pneumoniae it was 125 µg/mL (≈ 342 µM); against Escherichia coli, 125 µg/mL (≈ 342 µM). This molecule also had an MIC with Pseudomonas aeruginosa of 62.5 µg/mL (≈ 171 µM).

For the molecule `Sc1nnc(-c2ccc(-n3cccc3)cc2)o1`, the MIC in experiment [1] stood at 16 µg/mL (≈ 65.8 µM); against Staphylococcus aureus it was 250 µg/mL (≈ 1030 µM); with Enterococcus faecalis, 31.2 µg/mL (≈ 128 µM); in the experiment with Bacillus subtilis, 8 µg/mL (≈ 32.9 µM); in the experiment on Klebsiella pneumoniae, 125 µg/mL (≈ 514 µM); in the experiment on Escherichia coli, 31.2 µg/mL (≈ 128 µM). Moreover, the MIC in the experiment with Pseudomonas aeruginosa turned out to be 31.2 µg/mL (≈ 128 µM).

With `CC(C)=NNC(=O)c1ccc(-n2cccc2)cc1`, the MIC in experiment [1] was determined as 62.5 µg/mL (≈ 259 µM); with Staphylococcus aureus it was 250 µg/mL (≈ 1040 µM); against Enterococcus faecalis it was 125 µg/mL (≈ 518 µM); against Bacillus subtilis it was 62.5 µg/mL (≈ 259 µM); against Klebsiella pneumoniae, 250 µg/mL (≈ 1040 µM); with Escherichia coli, 125 µg/mL (≈ 518 µM). In addition, it took 62.5 µg/mL (≈ 259 µM) to inhibit growth in the experiment on Pseudomonas aeruginosa (MIC).

As to `NNC(=O)c1ccncc1` [ISONIAZID], the MIC in experiment [1] turned out to be 0.25 µg/mL (≈ 1.82 µM).

Regarding `Cc1ccc(C)n1NC(=O)c1ccc(-n2cccc2)cc1`, the MIC was determined as 31.2 µg/mL (≈ 112 µM) in experiment [1]; 250 µg/mL (≈ 895 µM) in the experiment with Staphylococcus aureus; 125 µg/mL (≈ 447 µM) with Enterococcus faecalis; 62.5 µg/mL (≈ 224 µM) in the experiment on Bacillus subtilis; 250 µg/mL (≈ 895 µM) against Klebsiella pneumoniae; 125 µg/mL (≈ 447 µM) in the experiment with Escherichia coli. For the same molecule, the MIC against Pseudomonas aeruginosa was found to be 62.5 µg/mL (≈ 224 µM).

`CC(=O)N1N=C(c2ccc(-n3cccc3)cc2)OC1c1ccccc1` (stereo not drawn): the minimum inhibitory concentration (MIC) is 31.2 µg/mL (≈ 94.3 µM) in experiment [1]; 250 µg/mL (≈ 754 µM) against Staphylococcus aureus; 125 µg/mL (≈ 377 µM) in the experiment on Enterococcus faecalis; 62.5 µg/mL (≈ 189 µM) against Bacillus subtilis; 62.5 µg/mL (≈ 189 µM) in the experiment on Klebsiella pneumoniae; 125 µg/mL (≈ 377 µM) in the experiment on Escherichia coli. Moreover, the minimal inhibitory concentration (MIC) against Pseudomonas aeruginosa turned out to be 62.5 µg/mL (≈ 189 µM).

Take `CC(=O)NNC(=O)c1ccc(-n2cccc2)cc1`: the MIC turned out to be 62.5 µg/mL (≈ 257 µM) in experiment [1]; 500 µg/mL (≈ 2060 µM) in the experiment with Staphylococcus aureus; 250 µg/mL (≈ 1030 µM) with Enterococcus faecalis; 62.5 µg/mL (≈ 257 µM) in the experiment with Bacillus subtilis; 125 µg/mL (≈ 514 µM) against Klebsiella pneumoniae; 500 µg/mL (≈ 2060 µM) with Escherichia coli. In the experiment with Pseudomonas aeruginosa, this molecule yielded an MIC of 62.5 µg/mL (≈ 257 µM).

Take `CC(=O)N1N=C(c2ccc(-n3cccc3)cc2)OC1c1c(Cl)cccc1Cl` (stereo not drawn): the MIC is 31.2 µg/mL (≈ 78.1 µM) in experiment [1]; 62.5 µg/mL (≈ 156 µM) against Staphylococcus aureus; 62.5 µg/mL (≈ 156 µM) in the experiment with Enterococcus faecalis; 31.2 µg/mL (≈ 78.1 µM) in the experiment on Bacillus subtilis; 62.5 µg/mL (≈ 156 µM) with Klebsiella pneumoniae; 62.5 µg/mL (≈ 156 µM) against Escherichia coli. The MIC against Pseudomonas aeruginosa was 31.2 µg/mL (≈ 78.1 µM).

Consider `C/C(=N\NC(=O)c1ccc(-n2cccc2)cc1)c1ccccc1`, for which the MIC was 62.5 µg/mL (≈ 206 µM) in experiment [1]; 250 µg/mL (≈ 824 µM) against Staphylococcus aureus; 125 µg/mL (≈ 412 µM) in the experiment with Enterococcus faecalis; 62.5 µg/mL (≈ 206 µM) against Bacillus subtilis; 125 µg/mL (≈ 412 µM) against Klebsiella pneumoniae; 125 µg/mL (≈ 412 µM) against Escherichia coli. In the experiment on Pseudomonas aeruginosa, this molecule returned an MIC of 62.5 µg/mL (≈ 206 µM).

As for `CN(C)c1ccc(/C=N/NC(=O)c2ccc(-n3cccc3)cc2)cc1`, the MIC came to 62.5 µg/mL (≈ 188 µM) in experiment [1]; 250 µg/mL (≈ 752 µM) in the experiment with Staphylococcus aureus; 125 µg/mL (≈ 376 µM) against Enterococcus faecalis; 125 µg/mL (≈ 376 µM) against Bacillus subtilis; 125 µg/mL (≈ 376 µM) against Klebsiella pneumoniae; 250 µg/mL (≈ 752 µM) against Escherichia coli. In the experiment with Pseudomonas aeruginosa, this molecule yielded an MIC of 125 µg/mL (≈ 376 µM).

As for `NNC(=O)c1ccc(-n2cccc2)cc1`, the MIC in experiment [1] was found to be 125 µg/mL (≈ 621 µM); against Staphylococcus aureus, 250 µg/mL (≈ 1240 µM); in the experiment on Enterococcus faecalis, 31.2 µg/mL (≈ 155 µM); in the experiment on Bacillus subtilis, 8 µg/mL (≈ 39.8 µM); with Klebsiella pneumoniae, 125 µg/mL (≈ 621 µM); with Escherichia coli it was 125 µg/mL (≈ 621 µM). Further, the minimum inhibitory concentration (MIC) against Pseudomonas aeruginosa stood at 62.5 µg/mL (≈ 311 µM).

As to `Nn1c(-c2ccc(-n3cccc3)cc2)n[nH]c1=S`, the MIC in experiment [1] was 62.5 µg/mL (≈ 243 µM); against Staphylococcus aureus it was 500 µg/mL (≈ 1940 µM); against Enterococcus faecalis it was 250 µg/mL (≈ 972 µM); against Bacillus subtilis, 125 µg/mL (≈ 486 µM); with Klebsiella pneumoniae, 125 µg/mL (≈ 486 µM); with Escherichia coli it was 500 µg/mL (≈ 1940 µM). In addition, the lowest concentration to inhibit growth in the experiment with Pseudomonas aeruginosa (MIC) was 125 µg/mL (≈ 486 µM).

On to `O=C(N/N=C/c1ccc(O)cc1)c1ccc(-n2cccc2)cc1`, for which the MIC in experiment [1] is 31.2 µg/mL (≈ 102 µM); in the experiment on Staphylococcus aureus, 125 µg/mL (≈ 409 µM); with Enterococcus faecalis it was 125 µg/mL (≈ 409 µM); in the experiment on Bacillus subtilis, 62.5 µg/mL (≈ 205 µM); with Klebsiella pneumoniae, 125 µg/mL (≈ 409 µM); against Escherichia coli, 62.5 µg/mL (≈ 205 µM). The molecule further displayed a minimum inhibitory concentration (MIC) against Pseudomonas aeruginosa of 62.5 µg/mL (≈ 205 µM).

In the case of `O=C(N/N=C/c1cccc([N+](=O)[O-])c1)c1ccc(-n2cccc2)cc1`, the minimal inhibitory concentration (MIC) is 62.5 µg/mL (≈ 187 µM) in experiment [1]; 500 µg/mL (≈ 1500 µM) in the experiment on Staphylococcus aureus; 500 µg/mL (≈ 1500 µM) in the experiment with Enterococcus faecalis; 250 µg/mL (≈ 748 µM) with Bacillus subtilis; 500 µg/mL (≈ 1500 µM) in the experiment with Klebsiella pneumoniae; 500 µg/mL (≈ 1500 µM) against Escherichia coli. Besides, the MIC in the experiment with Pseudomonas aeruginosa was 62.5 µg/mL (≈ 187 µM).
